Experimental data taken from patent US10450278B2, “Substituted 2-thioxo-imidazolidin-4-ones and spiro analogues thereof, active anticancer ingredient, pharmaceutical composition, medicinal preparation, method for treating prostate cancer” (R-Pharm Overseas Inc., priority 2014, dated 2019).

Target: T1, androgen receptors (Homo sapiens, UniProt P10275, T878A)
T1 sequence (P10275 1-920 T878A): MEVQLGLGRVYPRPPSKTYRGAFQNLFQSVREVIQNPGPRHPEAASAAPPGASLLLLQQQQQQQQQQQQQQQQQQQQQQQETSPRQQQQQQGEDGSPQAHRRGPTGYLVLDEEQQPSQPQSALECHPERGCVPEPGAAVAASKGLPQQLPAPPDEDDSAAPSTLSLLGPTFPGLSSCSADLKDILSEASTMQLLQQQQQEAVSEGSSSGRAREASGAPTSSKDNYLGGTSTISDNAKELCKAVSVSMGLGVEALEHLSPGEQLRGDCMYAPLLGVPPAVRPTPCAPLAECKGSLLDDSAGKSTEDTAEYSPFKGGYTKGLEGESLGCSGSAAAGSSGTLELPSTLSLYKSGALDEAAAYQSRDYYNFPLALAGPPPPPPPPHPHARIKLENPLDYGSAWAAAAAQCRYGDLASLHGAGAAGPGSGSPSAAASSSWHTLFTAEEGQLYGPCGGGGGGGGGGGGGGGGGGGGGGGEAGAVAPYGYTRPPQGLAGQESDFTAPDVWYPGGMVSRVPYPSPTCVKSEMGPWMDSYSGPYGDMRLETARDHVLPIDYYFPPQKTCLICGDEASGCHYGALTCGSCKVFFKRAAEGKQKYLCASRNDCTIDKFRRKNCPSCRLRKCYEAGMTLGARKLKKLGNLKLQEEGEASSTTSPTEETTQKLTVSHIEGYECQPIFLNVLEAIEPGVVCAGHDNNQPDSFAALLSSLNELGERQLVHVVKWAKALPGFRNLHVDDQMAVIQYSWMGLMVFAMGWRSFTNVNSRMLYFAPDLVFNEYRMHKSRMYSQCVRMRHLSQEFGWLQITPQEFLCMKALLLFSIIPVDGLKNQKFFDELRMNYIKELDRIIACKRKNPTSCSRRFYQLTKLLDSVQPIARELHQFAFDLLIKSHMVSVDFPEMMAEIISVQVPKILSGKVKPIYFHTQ
Experiment: cell-based
Method: Determination of antagonistic activity of the new compounds of general formula 1 and their analogues with respect to androgen receptors. The ability of the new compounds of general formula 1 and their analogues block androgen receptors is determined by their effectiveness ingbirovaniya sitmulirovannoy dihydrotestosterone expression of prostate-specific antigen (PSA) in the human prostate cancerous cells, LNCap, bank obtained from the American Tissue Culture (ATCC, USA). These cells are sensitive to 5-α-dihydrotestosterone (DHT) and produce cancerous marker (PSA) in its presence. […] Before experiments, the cells were washed and suspended in the same medium, where, however, calf serum was replaced with serum-treated to remove traces of charcoal hormones. Cells were dispensed at 100 1 (10 000 cells) in cell 96 lunochnoyh dies and left for 4 days in an incubator at […] (100% humidity) in an atmosphere of 95% air/5% CO2. […] Cells were allowed to stand for further 5 days under the same incubation conditions. Then nadkletochnoy environmental samples were taken for analysis on the content of the PSA. The analysis was performed according to the protocol recommended by the kit manufacturer to determine the PSA (Alpha Diagnostic International, USA). After wetting holes on the bottom affixed containing antibodies against PSA, they added 25 ul of samples and then 100 µL of antibodies as anti-PSA, which konyugtrovana horseradish peroxidase. After a 30 minute incubation at room temperature, the wells were removed, the wells were washed several times and poured into the wells, 100 ul of a chromogenic peroxidase substrate. Plates were incubated for 15 minutes at room temperature, the wells were added 50 mcl of stop solution and the intensity of color which developed was measured by absorbance at 450 nm. The intensity of the absorption is proportional to the concentration of PSA in the sample. […] 1.

Row | SMILES | IC50 | Ki
1 | CNC(=O)c1ccc(N2C(=S)N(c3ccc(C#N)c(C(F)(F)F)c3)C(=O)[C@@]2(C)COC)cc1F [II] | 145 nM | 34.9 nM
2 | CNC(=O)c1ccc(N2C(=S)N(c3ccc(C#N)c(C(F)(F)F)c3)C(=O)[C@]23CCOC3)cc1F [IV] | 83.5 nM | 20.1 nM
